“Also recorded” adds a separate entry of the source.
Assays:
[1] = system: T cells isolated from spleens of C57BL/6J mice; assay: Lymphocyte proliferation assay; format: cell-based, mouse; conditions: anti-CD3 and anti-CD28 stimulation, 72 hours
Protocol: Naïve T cells were isolated from spleens of C57BL/6J mice with MACS T cell isolation kit (Miltenyi Biotec). Isolated T cells were stimulated for 72 hours at 37° C. with plate-bound monoclonal antibodies against CD3 (10 μg/ml) and CD28 (2 μg/ml) before cell count measurements.

[2] = Bioavailability of ABA in mice (serum tested by luciferase activation); format: in vivo, mouse
Protocol: Mice were housed in the Stanford University Research Animal Facility in accordance with federal and institutional guidelines. Mice aged 6 to 8 weeks and weighing about 30 g were orally gavaged with 10 mg of ABA in EtOH/Tween 20/Cremophor (4:3:1; […] or just vehicle with syringes. Blood was collected from the tails of mice at the indicated time after gavage and left on ice for 20 min. After blood was coagulated, the samples were spun down at 1500 g for 20 min and serum was collected for immediate use or snap-frozen and stored at −80° C.
FIG. 5A illustrates the bio-availability of ABA in mice by intraperitoneal injection. With 100 mg ABA/kg mouse body weight, ABA is rapidly available in 30 minutes and still remains in the system after 4 hours. ABA was intraperitoneally injected to mice and serum was collected at indicated time. ABA containing serum was then added as 10% (v/v) of culture media to the CHO cell culture for 24 hours and cells were assayed for luciferase activity. The CHO cells were pre-transfected with the activation and reporter DNA constructs for 24 hours before adding serum. […] With 340 mg ABA/kg mouse body weight, ABA is rapidly available in 1 hour, remains in the system after 8 hours and returns to background level after 24 hours. ABA was orally administrated by gavage to mice and serum was collected at indicated time. ABA containing serum was then added as 10% (v/v) of culture media to the CHO cell culture for 24 hours and cells were assayed for luciferase activity. The CHO cells were pre-transfected with the activation and reporter DNA constructs for 24 hours before adding serum.
In plants, ABA had been reported to be unstable due to active enzymatic degradation (Cutler, A. J. and Krochko, J. E. (1999) Formation and breakdown of ABA. Trends Plant Sci. 4, 472-478). To examine its stability in mammalian cells, ABA was incubated with CHO cells for up to 48 hours, after which the functional ABA concentration was assayed by the ability of the ABA-incubated cell culture medium to induce luciferase production in cells expressing VP16-PYLcs and wild-type Gal4 DBD-ABIcs. […] For potential therapeutic application in humans, the stability of ABA in the serum and its bioavailability in mice was examined (FIG. 16B). The activity of residual ABA in the serum was measured by its ability to induce the transcriptional activation of the luciferase reporter in cells expressing the ABA-activator cassette. The stability of ABA in isolated serum was tested by incubating ABA with fresh human serum or heat-inactivated fetal bovine serum (FBS) for up to 48 hours and then applying the serum as the ABA source to activate luciferase. […] Using this assay, the bioavailability in mice was evaluated. When ABA was injected intraperitoneally, it entered circulation rapidly, and activity was detectable within 30 min (FIG. 33).

[3] = intraperitoneal injection, 100 mg ABA/kg

With `CC1=CC(=O)CC(C)(C)C1(O)/C=C/C(C)=C/C(=O)O` (stereo not drawn) [ABA, abscisic acid] the “effect upon proliferation induced by antigen receptor signaling” value [1] was “No statistically significant effect; also recorded: did not have an adverse effect”, the oral availability [2] was “orally bioavailable; also recorded: orally available” and the “time to detectable activity in circulation” value ([2]; injected intraperitoneally) was ≤ 30 min. The “time ABA still remains in the system” value [2, 3] was ≥ 4 h, the “time at which ABA is available in serum” value [2, 3] was 30 min and the half-life ([2]; mouse, serum, po, 340 mg/kg, administered orally) was ~4 h. For the same compound, the “time ABA remains in the system” value ([2]; oral gavage, 340 mg ABA/kg) was ≥ 8 h, the “time at which ABA is available in serum” value ([2]; oral gavage, 340 mg ABA/kg) was 60 min and the “time of return to background level” value ([2]; oral gavage, 340 mg ABA/kg) was 24 h.
